Data set [1] concerns the target T1, hTfR1 (extracellular domain of hTfR, His6-tagged) (Homo sapiens, UniProt P02786).
T1 construct: (NP_003225.2) (Cys 89-Phe 760); His6 (N); purchased Sino Biological Inc 11020-H07H; host or cells: HEK293
As to the kind of experiment: Surface plasmon resonance-based biosensor assay (Biacore T100), aptamer-hTfR binding affinity and kinetics. As to conditions: for ka (1/Ms), measured association rate / kd (1/s), measured disassociation rate / Kd: Biacore T100, biotinylated aptamer on streptavidin chip, hTfR1 protein injected, 1:1 binding with mass transfer; for Kd: read-out: K^D (M), equilibrium dissociation constant; for binding affinity and kinetics for hTfR1 (Biacore sensorgram), in words: compared with parent TR14. The source says:
Recombinant target protein. hTfR was purchased from Sino Biological Inc (11020-H07H, Beijing, P.R. China). The extracellular domain of hTfR (NP_003225.2) (Cys 89-Phe 760) was expressed with a His6-tag at the N-terminus in human cells (HEK293).
Surface plasmon resonance-based biosensor assay. The Biacore T100 (GE Healthcare, Uppsala, Sweden) was used to monitor label-free interactions of truncated TR14-hTfR1 in real time. The biotinylated aptamer was coupled to a streptavidin-coated Biacore chip (SensorChip SA, BR-1003-98, General Electric Company) by an injection in binding buffer at a concentration of 25 μg/mL (30 mM Tris-HCl, pH 7.5; 150 mM NaCl; 5 mM MgCl2) at 10 uL/min. The RNA was refolded by heating to 65° C., followed by cooling to 37° C., before immobilization. To measure binding kinetics, five concentrations of purified hTfR1 protein were injected at a flow rate of 10 uL/min. After binding, the surface was regenerated by injecting 50 mM NaOH at a flow rate of 15 μL/min for 20 s. Data from the control surface were subtracted. BIAevaluation software (GE Healthcare) was used for analysis. The binding data was fit to a 1:1 binding with a mass transfer model to calculate kinetics parameters as previously described (Hernandez et al, 2009; Soontornworajit et al, 2011)
In general terms: SPR reads the build-up and loss of mass on a sensor chip optically.

A further data set has as its target T2, TfR1 (Homo sapiens, UniProt P02786).
T2 construct: The U87MG cells only express TfR1, not TfR2; endogenous in cells; host or cells: U87MG (U-87 MG, ATCC HTB-14)
Kind of data set: Cross-reactivity by live cell confocal imaging, U87MG cells (express TfR1, not TfR2). In kind it is cell-based. As to conditions: Cy3-labelled aptamer, U87MG cells (TfR1 only). As for the experimental part: (§1) Cell line. HepG2 (Hepatocarcinoma, HB-8065) and PANC-1 (Pancreatic epithelioid carcinoma, CRL-1469), U-87 MG (Glioblastoma, HTB-14) were purchased from the American Type Culture Collection (ATCC, Manassas, Va.). The cells were cultured according to the suppliers' instructions. TB10 human glioma cell line was obtained from Vittorio de Franciscis lab in Italy. The cells were cultured according to the suppliers' instructions.
(§2) To determine the potential cross-reactivity of the parent TR14, S2 (43-nt) and ST1-3 (22-nt) truncates, we tested chemically synthesized parent TR14, TR14-[…] or TR14-ST1-3 aptamer labelled with Cy3 on live cells imaging by confocal microscopy. To test this, we choose two glioblastoma cell lines (U87MG and TB10) that are selectively expressed of TfR1 or TfR2. The U87MG cells only express TfR1, not TfR2. In contrast, TB10 expresses TfR2, not TfR1.

In another data set the target is T3, TfR2 (Homo sapiens, UniProt Q9UP52).
T3 construct: In contrast, TB10 expresses TfR2, not TfR1; endogenous in cells; host or cells: TB10 human glioma cells
T3 sequence (Q9UP52 1-801): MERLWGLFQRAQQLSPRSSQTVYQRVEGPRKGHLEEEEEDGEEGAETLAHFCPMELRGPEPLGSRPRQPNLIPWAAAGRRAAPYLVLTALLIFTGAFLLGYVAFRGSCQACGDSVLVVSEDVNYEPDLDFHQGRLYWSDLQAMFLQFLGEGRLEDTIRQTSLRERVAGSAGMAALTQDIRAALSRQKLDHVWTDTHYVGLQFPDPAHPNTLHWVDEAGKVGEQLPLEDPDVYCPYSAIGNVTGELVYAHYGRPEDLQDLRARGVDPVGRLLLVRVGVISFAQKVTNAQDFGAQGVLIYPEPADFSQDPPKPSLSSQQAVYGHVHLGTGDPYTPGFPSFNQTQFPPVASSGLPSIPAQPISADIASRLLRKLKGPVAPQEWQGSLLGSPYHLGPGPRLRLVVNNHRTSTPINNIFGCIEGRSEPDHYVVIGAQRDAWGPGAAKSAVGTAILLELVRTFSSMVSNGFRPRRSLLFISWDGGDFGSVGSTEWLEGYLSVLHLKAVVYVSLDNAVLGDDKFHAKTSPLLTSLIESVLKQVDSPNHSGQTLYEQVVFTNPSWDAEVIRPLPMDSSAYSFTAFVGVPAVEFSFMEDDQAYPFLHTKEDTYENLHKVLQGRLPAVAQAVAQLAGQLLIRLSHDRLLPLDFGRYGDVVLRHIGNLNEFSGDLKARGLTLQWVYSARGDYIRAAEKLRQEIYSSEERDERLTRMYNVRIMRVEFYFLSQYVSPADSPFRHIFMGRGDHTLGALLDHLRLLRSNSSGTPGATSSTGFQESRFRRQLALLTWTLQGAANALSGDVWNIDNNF
Kind of data set: Cross-reactivity by live cell confocal imaging, TB10 cells (express TfR2, not TfR1). The data set is classed as cell-based. As to conditions: Cy3-labelled aptamer, TB10 cells (TfR2 only). As for the experimental part:
as §1, §2

T1 sequence (P02786 89-760): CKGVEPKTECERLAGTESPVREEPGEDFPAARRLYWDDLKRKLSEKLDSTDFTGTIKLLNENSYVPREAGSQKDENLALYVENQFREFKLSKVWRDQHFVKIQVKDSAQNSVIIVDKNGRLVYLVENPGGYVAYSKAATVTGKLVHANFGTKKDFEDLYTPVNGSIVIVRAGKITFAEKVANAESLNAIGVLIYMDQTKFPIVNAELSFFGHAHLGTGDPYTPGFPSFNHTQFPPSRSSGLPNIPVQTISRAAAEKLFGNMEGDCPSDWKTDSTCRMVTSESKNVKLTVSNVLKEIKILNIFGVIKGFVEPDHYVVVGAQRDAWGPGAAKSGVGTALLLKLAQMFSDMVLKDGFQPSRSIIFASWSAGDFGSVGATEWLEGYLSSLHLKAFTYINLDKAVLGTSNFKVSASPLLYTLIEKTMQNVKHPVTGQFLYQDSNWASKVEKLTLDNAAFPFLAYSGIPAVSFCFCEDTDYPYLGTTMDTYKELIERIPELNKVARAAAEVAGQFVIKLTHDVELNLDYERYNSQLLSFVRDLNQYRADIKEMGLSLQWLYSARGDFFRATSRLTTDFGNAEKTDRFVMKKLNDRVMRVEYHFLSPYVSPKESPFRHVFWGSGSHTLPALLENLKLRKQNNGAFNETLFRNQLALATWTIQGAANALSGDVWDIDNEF
T2 sequence (P02786 whole entry): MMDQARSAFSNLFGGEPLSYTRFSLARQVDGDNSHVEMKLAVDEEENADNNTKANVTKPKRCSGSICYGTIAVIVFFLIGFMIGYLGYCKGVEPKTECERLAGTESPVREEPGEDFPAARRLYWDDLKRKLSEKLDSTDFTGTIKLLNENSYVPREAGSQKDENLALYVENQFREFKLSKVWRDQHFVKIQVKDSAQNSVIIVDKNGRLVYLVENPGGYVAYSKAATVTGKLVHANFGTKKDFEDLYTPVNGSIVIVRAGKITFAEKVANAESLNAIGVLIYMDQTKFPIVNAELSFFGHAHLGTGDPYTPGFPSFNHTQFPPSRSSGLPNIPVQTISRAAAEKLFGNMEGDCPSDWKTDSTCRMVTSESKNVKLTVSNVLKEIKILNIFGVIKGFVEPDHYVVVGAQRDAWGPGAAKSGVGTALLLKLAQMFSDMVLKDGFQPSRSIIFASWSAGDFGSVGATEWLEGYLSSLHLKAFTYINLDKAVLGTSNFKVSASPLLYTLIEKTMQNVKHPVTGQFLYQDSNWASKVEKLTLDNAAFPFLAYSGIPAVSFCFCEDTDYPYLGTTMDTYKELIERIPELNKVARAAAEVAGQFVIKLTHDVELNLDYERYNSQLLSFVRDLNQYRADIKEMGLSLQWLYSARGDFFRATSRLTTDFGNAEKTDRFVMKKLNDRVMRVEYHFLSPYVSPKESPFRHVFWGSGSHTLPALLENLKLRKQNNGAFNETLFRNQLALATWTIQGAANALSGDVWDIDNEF

As for “TR14 S1: TR14 truncate, 46-nt, with 5′-GGG; SEQ ID NO:2 (GGGGCUCAAUGCGUUCACGUUUAUUCACAUUUUUGAAUUGAGCAUG; listed as RNA, chemistry not given here)”, in data set [1], the “ka (1/Ms), measured association rate” value stood at 13000 M⁻¹ s⁻¹; the “kd (1/s), measured disassociation rate” value amounted to 1.89e-05 s⁻¹; the Kd amounted to 1.46e-09 M.
For “TR14 ST1-2: TR14 truncate, 32-nt, 5′-AAUGCGUUCACGUUUAUUCACAUUUUUGAAUU-3′; SEQ ID NO:5 (listed as RNA, chemistry not given here)”, the “binding affinity and kinetics for hTfR1 (Biacore sensorgram), in words” value (from here on “binding affinity and kinetics for hTfR1”) in data set [1] is recorded as “neither TR14 ST1-1 nor TR14 ST1-2 were measurable”.
“TR14 ST1-3: TR14 truncate, 22-nt, 5′-UUUAUUCACAUUUUUGAAUUGA-3′; SEQ ID NO:6 (listed as RNA, chemistry not given here)”: the “binding to TfR1” value with TfR1 was “cross-activity on both TfR1 and TfR2”. Further, the “binding to TfR2” value with TfR2 is “cross-activity on both TfR1 and TfR2”. Moreover, in data set [1], the “ka (1/Ms), measured association rate” value turned out to be 6.3e+06 M⁻¹ s⁻¹; the “kd (1/s), measured disassociation rate” value stood at 0.000138 s⁻¹; the Kd worked out at 2.2e-11 M.
With “TR14 S2: TR14 truncate, 43-nt, with 5′-GGG; SEQ ID NO:3 (GGGGCUCAAUGCGUUCACGUUUAUUCACAUUUUUGAAUUGAGC; listed as RNA, chemistry not given here)”, in the data set with TfR1, the “binding to TfR1” value was “selective binding to TfR1”. Also, the “binding to TfR2” value with TfR2 was “selective binding to TfR1”. In data set [1], the “ka (1/Ms), measured association rate” value stood at 8.34e+08 M⁻¹ s⁻¹; the “kd (1/s), measured disassociation rate” value is 0.000577 s⁻¹; the “binding affinity and kinetics for hTfR1” value is listed as “improved kinetic constants”.
As for “TR14 ST1-1: TR14 truncate, 40-nt, without 5′-GGG, chemically synthesized; SEQ ID NO:4 (GCUCAAUGCGUUCACGUUUAUUCACAUUUUUGAAUUGAGC; chemically synthesized, modifications not given here, further chemistry not given here)”, the “binding affinity and kinetics for hTfR1” value in data set [1] is given as “neither TR14 ST1-1 nor TR14 ST1-2 were measurable”.

The values are drawn from patent publication US20220396794A1, “APTAMERS AGAINST TRANSFERRIN RECEPTOR (TfR)” (APTERNA LIMITED, priority 2019, published 2022).
